Assay results from PMC10313705, “Structure and transport mechanism of the human calcium pump SPCA1” (Cell Research, 2023).

Tests used:
hSPCA1 (hSPCA1a) [1] = molecular target: T1, hSPCA1 (hSPCA1a) (Homo sapiens, UniProt P98194); experiment: cryo-EM structure ([…] Å); format: binding; parameters: gene ATP2C1; full-length (Met1-Val919), C-terminal 2x Strep tag, expressed in HEK293F cells, purified in DDM/CHS then digitonin; residues 1-15 and 906-919 not modelled; details: CaE1P-ADP state; 5 mM ADP, 5 mM NaF, 1 mM AlCl3; Ca2+, Mg2+, pH 8.0
T1 sequence (P98194 1-919): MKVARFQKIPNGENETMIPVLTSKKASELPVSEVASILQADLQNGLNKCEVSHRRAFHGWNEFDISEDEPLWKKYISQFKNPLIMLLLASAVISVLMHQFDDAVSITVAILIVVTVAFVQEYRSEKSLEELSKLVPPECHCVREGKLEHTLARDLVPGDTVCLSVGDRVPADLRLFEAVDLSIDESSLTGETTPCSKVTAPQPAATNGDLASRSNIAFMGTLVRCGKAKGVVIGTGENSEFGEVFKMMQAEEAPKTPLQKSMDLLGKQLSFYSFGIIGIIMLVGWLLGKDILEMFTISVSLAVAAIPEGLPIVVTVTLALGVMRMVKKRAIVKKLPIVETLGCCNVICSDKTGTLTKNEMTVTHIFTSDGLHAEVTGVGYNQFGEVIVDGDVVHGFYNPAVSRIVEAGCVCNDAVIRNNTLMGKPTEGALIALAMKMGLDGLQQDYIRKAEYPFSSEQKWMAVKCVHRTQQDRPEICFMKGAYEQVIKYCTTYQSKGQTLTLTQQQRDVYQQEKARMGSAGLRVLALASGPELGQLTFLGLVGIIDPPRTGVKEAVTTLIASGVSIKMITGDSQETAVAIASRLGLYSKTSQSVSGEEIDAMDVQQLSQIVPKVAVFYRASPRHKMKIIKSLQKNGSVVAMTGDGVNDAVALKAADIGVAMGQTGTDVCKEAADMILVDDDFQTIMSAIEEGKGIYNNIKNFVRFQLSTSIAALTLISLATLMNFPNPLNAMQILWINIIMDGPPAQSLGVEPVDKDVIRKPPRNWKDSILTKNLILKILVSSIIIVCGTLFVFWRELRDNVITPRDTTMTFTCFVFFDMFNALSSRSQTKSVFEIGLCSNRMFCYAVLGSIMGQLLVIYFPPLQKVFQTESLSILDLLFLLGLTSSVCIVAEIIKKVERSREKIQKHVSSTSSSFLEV

hSPCA1 (hSPCA1a) [2] = molecular target: T1, hSPCA1 (hSPCA1a); parameters: gene ATP2C1; details: ATP hydrolysis by purified protein in digitonin
hSPCA1 (hSPCA1a) [3] = molecular target: T1, hSPCA1 (hSPCA1a); experiment: cryo-EM structure; format: binding; parameters: gene ATP2C1; full-length (Met1-Val919), C-terminal 2x Strep tag, expressed in HEK293F cells, purified in DDM/CHS then digitonin; residues 1-15 and 906-919 not modelled; details: phosphate transition-state analogue at Asp350; E2~P state; 10 mM NaF, 2 mM AlCl3, Mg2+, no added Ca2+, pH 8.0
hSPCA1 (hSPCA1a) [4] = molecular target: T1, hSPCA1 (hSPCA1a); parameters: gene ATP2C1; details: phosphate analogue at Asp350; 10 mM NaF, 2 mM BeSO4, 1 mM CaCl2, Mg2+, pH 8.0; CaE2P (8IWS) and early E2P (8IWT) states

## Nc1ncnc2c1ncn2[C@@H]1O[C@H](COP(=O)(O)OP(=O)(O)O)[C@@H](O)[C@H]1O [ADP]
hSPCA1 (hSPCA1a) [1]
  cryo-EM structure (3.71 Å): the ADP molecule (dark gray) in the CaE1P-ADP state

## Nc1ncnc2c1ncn2[C@@H]1O[C@H](COP(=O)(O)OP(=O)(O)OP(=O)(O)O)[C@@H](O)[C@H]1O [ATP]
hSPCA1 (hSPCA1a) [2]
  ATPase assay, Pi release kit (absorbance at 636 nm): an ATPase activity assay demonstrated that it has ATP hydrolysis activity

## [F][Al-]([F])([F])[F] [AlF4^–]
hSPCA1 (hSPCA1a) [3]
  cryo-EM structure: The EM densities derived from AlF4^– were clearly visible near Asp350

## [F][Be-]([F])[F] [BeF3^–]
hSPCA1 (hSPCA1a) [4]
  cryo-EM structures (3.42 Å CaE2P; 3.25 Å early E2P): allowed us to trace the BeF3^– densities which were clearly visible near Asp350
